Values joined by “and” are separate entries in the source; they are usually repeats but may differ in a detail not shown here. Identical values can stand only once. Values belong to the compound of their own block, whether it stands above or below them. Active and inactive are the calls of the source.
Experiments:
Cytochrome P450 2C9 = Cytochrome P450 2C9 (Homo sapiens, UniProt P11712)
Cytochrome P450 1A2 = target: T1, Cytochrome P450 1A2 (Homo sapiens, UniProt P05177);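 also: PubChem cytochrome P450 panel assay, CYP1A2 panel member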
T1 sequence (P05177 whole entry): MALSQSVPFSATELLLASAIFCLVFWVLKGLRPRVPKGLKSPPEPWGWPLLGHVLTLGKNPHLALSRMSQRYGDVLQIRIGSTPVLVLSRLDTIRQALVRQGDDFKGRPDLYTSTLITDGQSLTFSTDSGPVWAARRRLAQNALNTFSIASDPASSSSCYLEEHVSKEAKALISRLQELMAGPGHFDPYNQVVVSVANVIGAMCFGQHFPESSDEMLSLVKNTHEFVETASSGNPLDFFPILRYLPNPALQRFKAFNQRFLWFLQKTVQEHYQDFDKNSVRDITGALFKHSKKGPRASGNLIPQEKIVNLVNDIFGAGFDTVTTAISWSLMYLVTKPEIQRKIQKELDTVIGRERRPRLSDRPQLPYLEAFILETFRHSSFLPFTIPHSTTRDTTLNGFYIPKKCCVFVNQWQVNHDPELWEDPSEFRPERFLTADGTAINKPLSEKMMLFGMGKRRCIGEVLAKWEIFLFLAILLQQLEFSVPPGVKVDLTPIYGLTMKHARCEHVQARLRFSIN

Cytochrome P450 2D6 = Cytochrome P450 2D6 (Homo sapiens, UniProt P10635);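 also: CYP2D6 member of a cytochrome P450 panel assay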
[1] = Trypanosoma cruzi growth suppression in host cells – NIH3T3 host cells, beta-gal luminescence, confirmation (AID 2044); type: functional, cell-based;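 also: intracellular parasites grown in NIH/3T3 mouse fibroblasts as host cells; luminescent beta-galactosidase reporter signal from transgenic T. cruzi replicating inside host cells; inhibitors lower the luminescence signal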
[2] = NIH3T3 cell viability loss – ATP luminescence, mouse fibroblasts, counter-screen, dose response (AID 2010); type: functional, cell-based;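 also: cells exposed to compound for about 90 hours before reading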
[3] = target: T2, Corticotropin-releasing factor receptor 2/Corticotropin-releasing factor-binding protein (Homo sapiens, UniProt P24387+Q13324); assay: activators of CRF receptor 2 with binding protein – uHTS hits, confirmation (AID 602473); type: functional; conditions: read-out: EC50_Mean
T2 sequence (Q13324 whole entry): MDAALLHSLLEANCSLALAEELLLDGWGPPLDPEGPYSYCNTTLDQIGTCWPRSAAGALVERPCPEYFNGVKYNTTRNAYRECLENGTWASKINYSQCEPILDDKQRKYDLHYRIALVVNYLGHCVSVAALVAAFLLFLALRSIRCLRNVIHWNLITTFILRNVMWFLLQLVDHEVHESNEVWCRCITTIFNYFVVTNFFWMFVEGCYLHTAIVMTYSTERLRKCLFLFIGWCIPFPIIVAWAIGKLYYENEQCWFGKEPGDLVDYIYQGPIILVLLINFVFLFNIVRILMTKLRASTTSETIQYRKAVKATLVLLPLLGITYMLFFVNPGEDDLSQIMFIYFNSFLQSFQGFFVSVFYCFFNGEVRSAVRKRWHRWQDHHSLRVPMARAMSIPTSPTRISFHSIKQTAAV
T2 sequence (P24387 whole entry): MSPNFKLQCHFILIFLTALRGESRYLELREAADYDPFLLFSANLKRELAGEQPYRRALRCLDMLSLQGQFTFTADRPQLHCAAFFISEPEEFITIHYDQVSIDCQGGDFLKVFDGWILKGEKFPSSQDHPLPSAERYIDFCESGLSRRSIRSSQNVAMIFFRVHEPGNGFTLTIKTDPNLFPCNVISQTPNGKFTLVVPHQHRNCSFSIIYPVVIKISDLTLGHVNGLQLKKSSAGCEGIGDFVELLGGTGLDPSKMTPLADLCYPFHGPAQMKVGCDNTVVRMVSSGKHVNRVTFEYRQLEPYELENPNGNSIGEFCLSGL

Cytochrome P450 3A4 = Cytochrome P450 3A4 (Homo sapiens, UniProt P08684);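 also: CYP3A4 tested as one member of a cytochrome P450 panel screen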
Sequence of Cytochrome P450 3A4 (P08684 whole entry): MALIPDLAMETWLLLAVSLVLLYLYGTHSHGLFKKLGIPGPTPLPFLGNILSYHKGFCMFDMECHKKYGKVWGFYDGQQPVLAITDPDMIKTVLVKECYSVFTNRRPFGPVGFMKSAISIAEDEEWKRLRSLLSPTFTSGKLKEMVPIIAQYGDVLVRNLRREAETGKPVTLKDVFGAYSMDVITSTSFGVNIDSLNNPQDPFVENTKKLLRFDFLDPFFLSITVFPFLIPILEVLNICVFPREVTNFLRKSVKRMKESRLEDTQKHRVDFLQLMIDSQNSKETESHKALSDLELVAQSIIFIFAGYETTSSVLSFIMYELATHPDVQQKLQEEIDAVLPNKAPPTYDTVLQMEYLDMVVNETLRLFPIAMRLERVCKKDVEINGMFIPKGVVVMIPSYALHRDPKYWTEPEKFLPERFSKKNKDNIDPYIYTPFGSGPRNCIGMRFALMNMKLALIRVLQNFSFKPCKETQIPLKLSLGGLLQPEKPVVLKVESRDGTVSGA

Sequence of Cytochrome P450 2D6 (P10635 whole entry): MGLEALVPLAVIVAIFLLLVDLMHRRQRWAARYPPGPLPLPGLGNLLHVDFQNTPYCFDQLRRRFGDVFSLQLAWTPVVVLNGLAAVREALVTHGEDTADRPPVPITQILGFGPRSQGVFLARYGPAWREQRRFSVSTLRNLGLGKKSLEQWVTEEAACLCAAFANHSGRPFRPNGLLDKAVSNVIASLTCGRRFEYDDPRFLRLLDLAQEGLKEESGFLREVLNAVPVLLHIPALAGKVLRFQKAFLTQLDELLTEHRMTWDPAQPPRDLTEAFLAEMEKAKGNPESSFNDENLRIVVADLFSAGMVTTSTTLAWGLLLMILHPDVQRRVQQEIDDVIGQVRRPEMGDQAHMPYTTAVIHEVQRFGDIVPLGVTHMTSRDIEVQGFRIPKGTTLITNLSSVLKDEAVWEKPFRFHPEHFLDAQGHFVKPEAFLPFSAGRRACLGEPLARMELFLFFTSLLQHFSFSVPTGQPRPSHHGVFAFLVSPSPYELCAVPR
Sequence of Cytochrome P450 2C9 (P11712 whole entry): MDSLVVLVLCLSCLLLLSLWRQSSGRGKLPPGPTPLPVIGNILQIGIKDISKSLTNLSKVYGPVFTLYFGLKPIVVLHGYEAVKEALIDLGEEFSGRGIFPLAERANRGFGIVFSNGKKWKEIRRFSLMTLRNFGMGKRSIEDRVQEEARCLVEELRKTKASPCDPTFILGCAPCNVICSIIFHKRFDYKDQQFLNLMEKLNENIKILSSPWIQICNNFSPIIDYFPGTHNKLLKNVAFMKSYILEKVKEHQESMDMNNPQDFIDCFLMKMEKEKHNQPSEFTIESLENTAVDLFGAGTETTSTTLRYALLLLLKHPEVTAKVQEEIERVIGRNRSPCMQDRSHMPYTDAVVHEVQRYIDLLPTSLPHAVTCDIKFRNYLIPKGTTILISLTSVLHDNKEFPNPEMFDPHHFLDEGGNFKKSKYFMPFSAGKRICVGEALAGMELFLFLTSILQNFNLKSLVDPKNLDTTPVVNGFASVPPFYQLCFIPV

AC50 (Cytochrome P450 2C9): 12.6 µM (inconclusive)
Structure (SMILES): COC(=O)c1cc(NC(=O)CC2NC3CCCCC3NC2=O)cc(C(=O)OC)c1 (stereo not drawn)

AC50 (Cytochrome P450 1A2): 10 µM (inconclusive)
Structure (SMILES): Cn1c(C(=O)O)c(CC(=O)NCc2cccnc2)c2ccccc21

AC50 (Cytochrome P450 1A2): 0.794 µM (inconclusive)
Structure (SMILES): CCNc1ncc2nc(-c3cc(F)cc(F)c3)c(=O)n(CCC#N)c2n1

AC50 (Cytochrome P450 2D6): 0.0501 µM (inconclusive)
Structure (SMILES): COC(=O)[C@@]1(Cc2ccc(OC)cc2)[C@H]2c3cc(C(=O)N(C)C)n(CCc4ccc(OC)c(Br)c4)c3C[C@H]2CN1C(=O)c1ccccc1

AC50 (Cytochrome P450 2C9): 1.26 µM (inconclusive)
Structure (SMILES): COc1ccc2[nH]cc(CCNc3ccnc(-c4ccccc4C)n3)c2c1

AC50 (Cytochrome P450 2C9): 31.6 µM (inconclusive)
Structure (SMILES): CCCCC[C@H](O)c1cccc(OCc2ccc3ccccc3n2)c1

Structure (SMILES): c1ccc2c([C@@H]3CCN(CCN4CCOCC4)C3)c[nH]c2c1
AC50 (Cytochrome P450 2D6): 3.98 µM (inconclusive)

Structure (SMILES): CCO[C@@H]1OC(C(=O)N2CCN(Cc3ccc4c(c3)OCO4)CC2)=C[C@H](C2CCCCC2)[C@H]1CCCO
EC50 [1]: 1.01 µM (active)
EC50 [2]: > 60 µM (not active)

Structure (SMILES): CCN1CCN(c2cc(C)c3cc(NC(=O)Cc4ccccc4OC)ccc3n2)CC1
EC50 [1]: 1.14 µM (active)
EC50 [2]: > 60 µM (not active)

Structure (SMILES): Cc1ccc(-n2nnnc2SCC(=O)c2cc(C)n(CC3CCCO3)c2C)cc1 (stereo not drawn)
EC50 [1]: 0.479 µM (active)
EC50 [2]: > 30 µM (not active)

AC50 (Cytochrome P450 1A2): 15.8 µM (inconclusive)
Structure (SMILES): Cc1cccc(C(CC(=O)N2CCCC2)c2ccccc2)c1O (stereo not drawn)

AC50 (Cytochrome P450 1A2): 6.31 µM (inconclusive)
Structure (SMILES): CCCCn1c(SCc2c(C)noc2C)nc2cc(S(N)(=O)=O)ccc21

EC50 [3]: > 53 µM (inactive)
Structure (SMILES): CCCCCn1/c(=N/C(=O)c2cccnc2)c(C#N)cc2c(=O)n3cccc(C)c3nc21

AC50 (Cytochrome P450 2C9): 31.6 µM (inconclusive)
Structure (SMILES): O=c1onc(-c2cccs2)n1Cc1ccccc1

AC50 (Cytochrome P450 2D6): 25.1 µM (inconclusive)
AC50 (Cytochrome P450 1A2): 28.2 µM (inconclusive)
AC50 (Cytochrome P450 2C9): 0.0708 µM (inconclusive)
Structure (SMILES): CN(C)c1nc2c(c(=O)[nH]c(=O)n2C)n1Cc1ccccc1Br

Structure (SMILES): O=C(Oc1ccccc1)N1CCC2(CCCN(C(c3ccccc3)c3ccccc3)C2)CC1
AC50 (Cytochrome P450 2C9): 2 µM (inconclusive)

AC50 (Cytochrome P450 2C9): 6.31 µM (inconclusive)
Structure (SMILES): C[C@@H]1C[C@H](C)CN(S(=O)(=O)c2cc(Cl)c(Oc3ccc([N+](=O)[O-])cc3Cl)c(Cl)c2)C1

Structure (SMILES): O=C(Nc1ncc(Cc2ccccc2Cl)s1)c1ccc(-c2cccc([N+](=O)[O-])c2)o1
EC50 [1]: 1.57 µM (active)
EC50 [2]: > 60 µM (inconclusive)

AC50 (Cytochrome P450 2C9): 17.8 µM (inconclusive)
Structure (SMILES): CCOC(=O)CN(C(=O)CCC(=O)Nc1cc(C)on1)C(C(=O)NC1CCCC1)c1cccnc1 (stereo not drawn)

AC50 (Cytochrome P450 2D6): 39.8 µM (inconclusive)
Structure (SMILES): CCCC(=O)Nc1ccc(C(=O)NNC(=S)NC(=O)c2cccs2)cc1

AC50 (Cytochrome P450 1A2): 14.1 µM (inconclusive)
Structure (SMILES): CCCCCCCCCn1cc(C(C)=O)c(=O)[nH]c1=O

Structure (SMILES): COc1ccc2[nH]c(C)c(CCN(Cc3cccs3)C(S)=Nc3ccccc3OC)c2c1
EC50 [1]: 2.08 µM (active)
EC50 [2]: > 60 µM (not active)

AC50 (Cytochrome P450 1A2): 2.51 µM (inconclusive)
Structure (SMILES): COc1ccc(-c2nc3cnc(N4CCOCC4)nc3n(Cc3cccs3)c2=O)cc1

Structure (SMILES): c1ccc([C@@H]2CN3CCSC3=N2)cc1 [DEXAMISOLE]
AC50 (Cytochrome P450 2D6): 31.6 µM (inconclusive) and 10 µM (inconclusive) and 20 µM (inconclusive)

AC50 (Cytochrome P450 3A4): 35.5 µM (inconclusive)
Structure (SMILES): COc1cccc(CNc2ccc(F)c(Cl)c2)c1O

Structure (SMILES): O=C(O)c1ccccc1C1c2ccccc2Oc2ccccc21
AC50 (Cytochrome P450 2C9): 3.98 µM (inconclusive)

Structure (SMILES): CCCn1c(=O)c2[nH]c(C3CCCC3)nc2n(CCCOC(=O)c2ccc(S(=O)(=O)F)cc2)c1=O
AC50 (Cytochrome P450 3A4): 3.16 µM (inconclusive)
AC50 (Cytochrome P450 2C9): 3.16 µM (inconclusive)

Structure (SMILES): NCCNS(=O)(=O)c1cccc2cnccc12
AC50 (Cytochrome P450 3A4): 20 µM (inconclusive) and 39.8 µM (inconclusive)
AC50 (Cytochrome P450 2D6): 7.94 µM (inconclusive) and 25.1 µM (inconclusive)

AC50 (Cytochrome P450 3A4): 3.98 µM (inconclusive)
Structure (SMILES): CC(C)COP(=O)(OCC(C)C)C(O)c1ccccc1F (stereo not drawn)

Source: ChEMBL document CHEMBL1201862, “PubChem BioAssay data set” (2004)
